Experiments:
HEK293 GFP Parkin cells [1] = assay: High throughput small molecule screen for Parkin recruitment to mitochondria (high content imaging); format: cell-based; conditions: for rank in the kinase inhibitor library screen (rank order by z-score): 4 μM, 16 h, then CCCP 2 h, rank out of 480, low rank = activator of Parkin recruitment, high rank = inhibitor; for % of cells with mitochondrial Parkin: CCCP only (DMSO pinned)
Method: 10 uL of 0.1 mg/mL Poly-D-Lys solution was added to 384-well plates for 5 minutes, followed by a PBS wash. Plates were dried for at least 2 hours. 50 μL of 600 000 HEK293 GFP Parkin cell/mL of DMEM was dispensed into each well. After 24 hours incubation to allow the cells to adhere, 200 nL of small molecules (or DMSO in columns 1, 2, 23 and 24) were pinned. Following a 16-hour incubation, 200 nL of 5 mM CCCP were added to all wells except columns 1 and 2, into which 200 nL of DMSO was added. Following 2-hour incubation, cells were fixed with 4% paraformaldehyde (PFA) and stained with 50 μL of 1 μg/mL DAPI solution for 15 minutes. After the final PBS wash, plates were ready for high content microscopy.
Images were acquired on IN Cell Analyzer 6000 (GE Healthcare), equipped with sCMOS camera (2048×2048), and 20x/0.45 NA Plan Fluor objective (Nikon) in open aperture mode using 1×1 binning. Image analysis was performed using Columbus Image Analysis System (PerkinElmer). Nuclei were initially detected in DAPI channel, followed by whole cell segmentation in GFP channel. Using PhenoLOGIC machine learning plug-in, cells were split into 2 sub-populations: cells with even GFP-Parkin distribution and cells where GFP-Parkin was localized to mitochondria. The percentage of cells with mitochondrial GFP-Parkin was determined per well. The molecules were then rank ordered based on z-score, which is calculated using the formula: […]
where x is the percentage of cells with mitochondrial GFP-Parkin for a specific small molecule, μ is the average percentage of cells with mitochondrial Parkin in positive control columns 23 and 24, where cells are treated with CCCP only.
These cell lines were screened across 2 biological replicates with compounds from the kinase inhibitor (n=480) and Prestwick (n=1120) collections. The 3-day screening protocol consisted of (1) seeding cells, (2) pinning small molecules at 4 μM concentration and (3) inducing mitophagy with CCCP, followed by processing of plates for high content imaging. Following image acquisition, DAPI staining was used to segment cells within each image. Supervised machine learning was used to classify cells into two classes: (1) cells with cytosolic Parkin distribution and (2) those with Parkin localized to mitochondria. […] Compounds which increased the proportion of class 2 cells across 2 biological replicates, compared to the CCCP-only treated cells (FIG. 10), as indicated by their z-score (FIG. 11), were considered hits.

[2] = test system: HeLa cells expressing GFP Parkin WT and mito-dsRed; assay: Parkin recruitment after Ac220 pre-treatment and CCCP; format: cell-based; conditions: Ac220 pre-treatment, 10 μM CCCP
Method: (§1) A) HeLa cells expressing GFP Parkin WT and mito-dsRed were treated with either DMSO, 10 μM CCCP or 4 μM Ac220 in combination with CCCP. B) Cell lysates from HeLa cells pre-treated with either DMSO or 4 μM Ac220 prior to addition of 10 μM CCCP were separated by SDS-PAGE and immunoblotting was performed against Mfn2 and actin. C) Cells were pre-treated with either DMSO, 2 μM Ac220, 1 μM Ac220 prior to addition of 10 μM CCCP. D) Cells were pre-treated with indicated concentrations of Ac220 prior to addition of 10 μM CCCP for 1 hour. Cell lysates were separated by SDS-PAGE and immunoblotting was performed against Mfn2 and actin. E) Densitometry analysis of Mfn2 levels normalized to loading control […]. Data is presented as mean±s.d. F) HeLa GFP Parkin cells were transfected with HA-PINK1 and pre-treated with either DMSO or Ac220 prior to addition of CCCP and Mg132. G) HeLa GFP Parkin cells and H) SH-SY5Y cells were pre-treated with either DMSO or Ac220 prior to addition of CCCP for the indicated time. Immunoblotting was performed using antibodies against PINK1 and actin.

HeLa cells [3] = assay: Immunoblotting of Mfn2 degradation after Ac220 and CCCP; format: cell-based; conditions: Ac220 pre-treatment, 10 μM CCCP
Method: as §1
Lysates were harvested using lysis buffer (0.1M Tris HCl, 0.01% SDS, pH 9) with 1× protease inhibitor cocktail (BioShop, PIC002.1). […] 12% SDS-PAGE gels were used to run samples to be analyzed for LC3 conversation and for Tom20 and 10% gels were run for all other samples. […]

PINK1 = PINK1 accumulation after mitochondrial damage (immunoblot); format: cell-based; conditions: Ac220 pre-treatment, CCCP; HeLa GFP Parkin and SH-SY5Y cells
Method: as §1

[4] = test system: HeLa cells stably expressing GFP parkin and mito-DsRed; assay: Mitochondrial clearance assay; format: cell-based; conditions: pre-treated with DMSO, 24 hour 10 μM CCCP
Method: HeLa cells stably expressing GFP parkin and mito-DsRed were seeded into 12-well plates containing coverslips and allowed to adhere overnight. Cells were then treated with DMSO or 0.5 μM SR3677 for 2 hours prior to addition of 10 μM CCCP for 24 hours. Cells were then washed with PBS, fixed with 4% PFA and washed with PBS again prior to the mounting of coverslips onto glass slides. Mitochondrial clearance was quantified by counting the number of cells in each treatment to retain mito-DsRed signal. 3 independent trials were performed with at least 50 cells quantified per trial.

SH-SY5Y cells = assay: Cell viability by crystal violet staining; format: cell-based; conditions: CCCP alone, 24 hours
Method: A) SH-SY5Y cells were pre-treated with either DMSO or 0.5 μM SR3677 prior to addition of either DMSO or 10 μM CCCP for 24 hours. Following treatment, cells were washed, fixed with 4% paraformaldehyde and stained with crystal violet dye. B) The OD at 550 nm was measured to assess crystal violet staining.
To determine whether these findings could be translated into dopaminergic neurons, the study was continued in the dopaminergic neuroblastoma SH-SY5Y cell line. Parkin undergoes a similar CCCP-dependent subcellular transition from cytosol to mitochondria in these cells^12. First, whether the viability of these cells would be improved by SR3677 was investigated. Initially, experiments were conducted using crystal violet staining as an indicator of cell viability. […] Next, SH-SY5Y cells were differentiated into a more neuron-like population according to protocols previously described^10 and ATP levels were measured. […] Varying concentrations of SR3677 were co-administered alongside the PD-causing toxin paraquat.

[5] = used in Japan; cited from earlier work
HEK293 GFP Parkin cells [6] = assay: Parkin recruitment assay; format: cell-based
Method: HEK293 GFP Parkin cells were seeded into 12-well plates containing coverslips. Cells were treated with small molecules for 2 hours prior to mitophagy induction with 10 μM CCCP, unless indicated otherwise. Following fixation with 4% PFA, immunostaining was carried out using anti-ATP5A primary antibody and anti-mouse Alex Fluor 568.
To measure the percentage of cells with Parkin localized to mitochondria a 2 step process was employed: (1) whole cell segmentation based on GFP Parkin using CellProfiler software and (2) classification into Parkin distribution subpopulation using CellProfiler Analyst. The percentage of cells with Parkin localized to mitochondria was determined in each image. Images were taken at 20× magnification for this experiment, resulting in the classification of at least 300 cells in each treatment group per trial.

ROCK2 = ROCK2 (Homo sapiens, UniProt O75116); conditions: biochemical and cell-based assays, previous studies; cited from earlier work
ROCK1 = ROCK1 (Homo sapiens, UniProt Q13464); conditions: biochemical and cell-based assays, review; cited from earlier work
[7] = cited from earlier work
HeLa cells [8] = assay: Mito-QC assay (targeting of mitochondria to lysosomes); format: cell-based; conditions: 50 μM chloroquine 16 hours pre-treatment
Method: HeLa cells were seeded into 6-well plates containing glass coverslips and allowed to adhere overnight. Cells were co-transfected with RGOMP25 and Cerulean-Parkin plasmids 24 hours prior to treatments. E-64 and leupeptin were added along with either DMSO or 10 μM CCCP for 6 hours prior followed by a PBS wash, fixation with 4% PFA and a final PBS wash prior to mounting onto glass slides with Fluoromount.
Cells were treated with 50 μM chloroquine for 16 hours prior to addition of E64, leupeptin, SR3677 and CCCP in the indicated treatment group. For the in vivo mitoQC assays, 5 7-day old male TH-GAL4>UAS-mitoQC were placed into vials containing water (control), sublethal 1 mM paraquat, 1 mM SR3677 alone and in combination with paraquat for 7 days. […] Fly brains were mounted in VectaShield™ mounting medium for imaging using the Zeiss LSM700 confocal fluorescence microscope with 40× 1.4 NA Oil Plan-APOCRAMAT objective and the appropriate lasers and filter. […]
Quantification of the RG assay was done using Fiji software. […] A red/green fluorescence intensity ratio was determined for each pixel. Pixels were considered red-only if the red/green fluorescence ratio was greater than or equal to 1.5. The area of red-only pixels over the total non-background area was determined and averaged across 4 independent trials in which at least 20 cells were quantified per treatment.

Sequence of ROCK2 (O75116 whole entry): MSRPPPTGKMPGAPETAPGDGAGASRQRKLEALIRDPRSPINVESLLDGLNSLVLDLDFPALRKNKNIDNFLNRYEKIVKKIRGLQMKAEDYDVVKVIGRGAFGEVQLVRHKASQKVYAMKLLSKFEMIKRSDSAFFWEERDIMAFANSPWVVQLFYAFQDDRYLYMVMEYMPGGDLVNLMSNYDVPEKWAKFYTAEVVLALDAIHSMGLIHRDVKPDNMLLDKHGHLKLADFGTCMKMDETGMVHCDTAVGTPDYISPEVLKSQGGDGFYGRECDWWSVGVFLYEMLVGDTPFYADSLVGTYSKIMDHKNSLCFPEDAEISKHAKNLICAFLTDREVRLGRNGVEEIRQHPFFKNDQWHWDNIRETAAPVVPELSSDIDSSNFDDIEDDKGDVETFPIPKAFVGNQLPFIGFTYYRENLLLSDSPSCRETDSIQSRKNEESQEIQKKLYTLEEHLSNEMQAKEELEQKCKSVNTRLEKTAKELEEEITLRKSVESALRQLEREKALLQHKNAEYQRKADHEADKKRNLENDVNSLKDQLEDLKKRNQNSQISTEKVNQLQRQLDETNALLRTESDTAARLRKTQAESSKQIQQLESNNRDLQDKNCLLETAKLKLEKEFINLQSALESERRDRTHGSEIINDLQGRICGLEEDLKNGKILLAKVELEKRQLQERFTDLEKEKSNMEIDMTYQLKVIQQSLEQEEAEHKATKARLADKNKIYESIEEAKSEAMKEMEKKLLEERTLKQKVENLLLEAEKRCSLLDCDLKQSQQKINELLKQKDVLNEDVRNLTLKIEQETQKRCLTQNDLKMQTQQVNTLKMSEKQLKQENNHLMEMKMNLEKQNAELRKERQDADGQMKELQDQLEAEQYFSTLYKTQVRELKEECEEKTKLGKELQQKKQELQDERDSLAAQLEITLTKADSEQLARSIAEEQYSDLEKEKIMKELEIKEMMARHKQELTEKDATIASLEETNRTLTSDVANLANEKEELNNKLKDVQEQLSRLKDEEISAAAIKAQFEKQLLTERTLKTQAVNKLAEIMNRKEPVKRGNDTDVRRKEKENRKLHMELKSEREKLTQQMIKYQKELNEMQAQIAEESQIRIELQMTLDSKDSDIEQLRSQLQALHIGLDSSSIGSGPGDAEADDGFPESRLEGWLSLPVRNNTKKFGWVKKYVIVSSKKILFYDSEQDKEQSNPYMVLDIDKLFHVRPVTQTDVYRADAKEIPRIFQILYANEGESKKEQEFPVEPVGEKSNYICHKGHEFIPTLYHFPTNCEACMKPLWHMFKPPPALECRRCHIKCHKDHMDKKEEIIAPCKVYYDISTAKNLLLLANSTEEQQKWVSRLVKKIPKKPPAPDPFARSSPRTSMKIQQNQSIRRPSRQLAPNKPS
Sequence of ROCK1 (Q13464 whole entry, species assumed): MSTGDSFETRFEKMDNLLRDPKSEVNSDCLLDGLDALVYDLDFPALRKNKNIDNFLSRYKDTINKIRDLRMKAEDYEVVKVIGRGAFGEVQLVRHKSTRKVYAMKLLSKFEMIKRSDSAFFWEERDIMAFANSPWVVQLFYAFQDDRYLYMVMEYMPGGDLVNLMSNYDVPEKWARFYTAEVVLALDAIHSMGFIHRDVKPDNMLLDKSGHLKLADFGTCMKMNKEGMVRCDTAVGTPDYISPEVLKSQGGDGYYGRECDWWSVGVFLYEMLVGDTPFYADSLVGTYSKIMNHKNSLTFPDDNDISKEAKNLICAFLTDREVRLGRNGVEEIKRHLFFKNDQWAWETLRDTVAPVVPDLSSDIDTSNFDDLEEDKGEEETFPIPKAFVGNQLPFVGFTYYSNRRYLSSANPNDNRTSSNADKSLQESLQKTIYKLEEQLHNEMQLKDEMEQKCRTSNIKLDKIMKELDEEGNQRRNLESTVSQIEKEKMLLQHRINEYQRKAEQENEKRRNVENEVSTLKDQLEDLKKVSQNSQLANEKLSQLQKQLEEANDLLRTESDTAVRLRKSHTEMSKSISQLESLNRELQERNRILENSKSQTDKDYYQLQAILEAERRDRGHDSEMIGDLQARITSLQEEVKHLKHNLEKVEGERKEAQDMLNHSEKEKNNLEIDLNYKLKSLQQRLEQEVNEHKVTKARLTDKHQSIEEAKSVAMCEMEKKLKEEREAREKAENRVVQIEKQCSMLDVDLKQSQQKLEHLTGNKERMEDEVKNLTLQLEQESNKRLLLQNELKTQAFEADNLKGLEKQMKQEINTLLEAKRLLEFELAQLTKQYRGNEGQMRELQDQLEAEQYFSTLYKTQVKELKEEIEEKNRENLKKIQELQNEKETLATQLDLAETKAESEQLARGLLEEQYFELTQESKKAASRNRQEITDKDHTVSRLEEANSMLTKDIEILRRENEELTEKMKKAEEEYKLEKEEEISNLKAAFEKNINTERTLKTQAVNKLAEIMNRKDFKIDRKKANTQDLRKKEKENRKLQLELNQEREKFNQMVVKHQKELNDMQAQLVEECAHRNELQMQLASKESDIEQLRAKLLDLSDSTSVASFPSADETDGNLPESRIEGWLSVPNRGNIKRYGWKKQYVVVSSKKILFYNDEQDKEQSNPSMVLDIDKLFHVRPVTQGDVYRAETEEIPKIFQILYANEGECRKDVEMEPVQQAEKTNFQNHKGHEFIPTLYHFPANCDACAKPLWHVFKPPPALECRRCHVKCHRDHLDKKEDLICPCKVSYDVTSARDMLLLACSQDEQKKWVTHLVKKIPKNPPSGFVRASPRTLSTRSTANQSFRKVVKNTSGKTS

CC(C)(C)c1cc(NC(=O)Nc2ccc(-c3cn4c(n3)sc3cc(OCCN5CCOCC5)ccc34)cc2)no1 [Ac220]
rank in the kinase inhibitor library screen (rank order by z-score) (HEK293 GFP Parkin cells [1]): 475/480 | Parkin recruitment [2]: inhibited Parkin recruitment | degradation of Mfn2 (HeLa cells [3]): inhibited | PINK1 accumulation in response to mitochondrial damage (PINK1): fails to accumulate

N#CC(C#N)=NNc1cccc(Cl)c1 [CCCP, carbonyl cyanide m-chlorophenylhydrazone]
% of cells with mitochondrial Parkin (HEK293 GFP Parkin cells [1]; Prestwick library screen): 71.2±2.6% | % of cells with mitochondrial Parkin (HEK293 GFP Parkin cells [1]; kinase inhibitor library screen): 83.4±2.3% | % of cells that retained mito-DsRed [4]: 47.5±8.25% | crystal violet staining (SH-SY5Y cells): reduced the amount of staining

O=S(=O)(c1cccc2cnccc12)N1CCCNCC1 [Fasudil]
class in the screen (FIG. 1b) (HEK293 GFP Parkin cells [1]; ROCK inhibitors, 4 μM plus CCCP): Enhancers of Parkin recruitment | safety and efficacy in vasospasm following subarachnoid hemorrhage [5]: safety and efficacy

C[C@@H](N)[C@H]1CC[C@H](C(=O)Nc2ccncc2)CC1 [Y27632]
rank in the kinase inhibitor library screen (rank order by z-score) (HEK293 GFP Parkin cells [1]): 9/480 | Parkin recruitment on re-test (HEK293 GFP Parkin cells [6]; 10 μM, 2-hour treatment, CCCP): recapitulated the effects observed following overnight incubation | Parkin distribution in the absence of CCCP (HEK293 GFP Parkin cells [6]; compound alone): diffuse | ROCK2 inhibition (ROCK2): sufficiently inhibit both ROCK1 and ROCK2 | ROCK1 inhibition (ROCK1): sufficiently inhibit both ROCK1 and ROCK2 | cell permeability [7]: poor cell permeability

CCN(CC)CCCC(C)Nc1ccnc2cc(Cl)ccc12 (centres unmarked) [chloroquine]
effect on SR3677-mediated enhancement of mitophagy (HeLa cells [8]): abrogates SR3677-mediated enhancement of mitophagy
